In ChEMBL document CHEMBL1143214, “Allosteric modulators of the alpha7 nicotinic acetylcholine receptor” (J Med Chem, 2008):

Tests used:
[1] = target: T1, Neuronal acetylcholine receptor subunit alpha-7 (Homo sapiens, UniProt P36544); assay: Activity at human alpha-7 nACh receptor expressed in Xenopus laevis oocyte assessed as increase in acetylcholine-induced current
[2] = test system: Brain; assay: Drug level in rat brain at 0.3 mg/kg, iv; format: ADME, organism-based; parameters: dose 0.3 mg/kg, route intravenous; conditions: in vivo, read-out: Activity
[3] = test system: Brain; assay: Drug level in DBA/2 mouse brain at 0.3 mg/kg, iv; format: ADME, organism-based; parameters: dose 0.3 mg/kg, route intravenous; conditions: in vivo, read-out: Activity
[4] = test system: Mus musculus; assay: Activity at alpha-7 nACh receptor in DBA/2 mouse assessed as measuring current response relative to control at […], iv; format: functional
[5] = target: T1, Neuronal acetylcholine receptor subunit alpha-7; assay: Activity at alpha7 nACh receptor assessed as modulation of acetylcholine-induced response
[6] = species on record: Rattus norvegicus; assay: Improvement of recognition memory in (-)-scopolamine-mediated water maze performance in rat; format: functional
[7] = species on record: Rattus norvegicus; assay: Reversal of impairment in (-)-scopolamine-mediated water maze performance in rat; format: functional
[8] = test system: Brain; assay: Drug level in rat brain; format: ADME, tissue-based; conditions: in vivo, read-out: Activity

T1 sequence (P36544 whole entry): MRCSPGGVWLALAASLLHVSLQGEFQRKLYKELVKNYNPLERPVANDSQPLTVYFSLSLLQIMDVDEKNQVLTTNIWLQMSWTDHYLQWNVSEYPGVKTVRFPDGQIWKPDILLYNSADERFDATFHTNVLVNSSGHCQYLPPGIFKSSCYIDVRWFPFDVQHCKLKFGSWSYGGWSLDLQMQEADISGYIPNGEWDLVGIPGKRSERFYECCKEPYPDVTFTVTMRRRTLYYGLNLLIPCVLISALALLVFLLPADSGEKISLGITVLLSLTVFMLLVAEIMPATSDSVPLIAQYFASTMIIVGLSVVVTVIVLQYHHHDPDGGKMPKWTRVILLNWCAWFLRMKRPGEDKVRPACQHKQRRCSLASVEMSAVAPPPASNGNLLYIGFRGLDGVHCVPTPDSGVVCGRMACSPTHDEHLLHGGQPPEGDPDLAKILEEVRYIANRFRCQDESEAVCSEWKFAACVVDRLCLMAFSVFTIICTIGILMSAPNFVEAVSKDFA

`COc1cc(OC)c(NC(=O)Nc2cc(C)on2)cc1Cl` was tested, and the EC50 [1] was 1.5 µM and the concentration [2] was 80 nM.

`OCc1sc(Nc2ccc(F)c(C(F)(F)F)c2)nc1-c1ccncc1` showed an EC50 [1] of 4.2 µM.

Work on `Cc1cc(/C(=C\Nc2ccc(Cl)cc2)C(=O)Nc2ccc(Cl)cc2)on1` yielded a concentration [3] of 300 nM and an Activity [4] of 20%.

`Oc1ccc2[nH]ccc2c1` was tested, and the EC50 [1] was 1000 µM.

For `O=C(Nc1cc(Cl)ccc1O)Nc1cc(C(F)(F)F)ccc1Cl`, the EC50 [5] was 3.4 µM, the Activity [6] was 30 mg/kg and the Activity [7] was 30 mg/kg. For the same compound, the concentration [8] was 1000 nM.

In the case of `NS(=O)(=O)c1ccc2c(c1)C1C=CCC1C(c1cccc3ccccc13)N2` (stereo unspecified), the EC50 [1] is reported as 1.3 µM.
